From ChEMBL document CHEMBL4673282, “Identification of a New Heterocyclic Scaffold for Inhibitors of the Polo-Box Domain of Polo-like Kinase 1” (J Med Chem, 2020)
In brackets after ≈: the same amount, converted by molar mass.

Tests used:
[1] = Aqueous solubility of compound; type: physicochemical; details: buffer
[2] = Half life in rat liver microsomes at 1 uM measured up to 60 mins in presence of NADPH generating system; details: 1 h
in vitro = details: PAMPA
Description: Permeability of the compound by PAMPA

Compound	solubility [1]	t1/2 [2] [min]	Papp (in vitro) [nm/s]
CC(C)NC(=O)CCn1c(=O)c2cc(Cl)ccc2n2c(=S)[nH]nc12	0.0081 mg/mL (≈ 22.1 µM)		
CC(CN(C)C)n1c(=O)c2cc(F)ccc2n2c(=S)[nH]nc12 (racemic)	> 0.047 mg/mL	> 30	1860
O=C(NCCCn1c(=O)c2cc(F)ccc2n2c(=S)[nH]nc12)C1CCCNC1 (racemic)	0.0296 mg/mL (≈ 73.2 µM)	> 30	
O=C(NCCCn1c(=O)c2cc(F)ccc2n2c(=S)[nH]nc12)c1ccccc1	0.0219 mg/mL (≈ 55.1 µM)	> 30	2670
O=c1c2cc(N3CCOCC3)ccc2n2c(=S)[nH]nc2n1CCc1ccccc1	0.0034 mg/mL (≈ 8.34 µM)	> 30	
CNC(=S)N1CN(CCc2ccccc2)C(=O)c2cc(F)ccc21	0.0045 mg/mL (≈ 13.1 µM)	2.2	1610
CS(=O)(=O)NCCCn1c(=O)c2cc(F)ccc2n2c(=S)[nH]nc12	0.034 mg/mL (≈ 91.5 µM)	> 30	
N[C@@H](CCC(=O)O)C(=O)NCCCn1c(=O)c2cc(F)ccc2n2c(=S)[nH]nc12	0.032 mg/mL (≈ 75.8 µM)	> 30	
O=C(NCCCn1c(=O)c2cc(F)ccc2n2c(=S)[nH]nc12)C1CCCCN1 (racemic)	> 0.06 mg/mL	> 30	
CC(C)(C)OC(=O)NC1CCC(C(=O)NCCCn2c(=O)c3cc(F)ccc3n3c(=S)[nH]nc23)CC1 (racemic)	> 0.077 mg/mL	24.8	3300
O=c1c2cc(F)ccc2n2c(=S)[nH]nc2n1Cc1ccccc1	0.0083 mg/mL (≈ 25.4 µM)	> 30	8410
O=C(Cc1cccnc1)NCCCn1c(=O)c2cc(F)ccc2n2c(=S)[nH]nc12		> 30	
CCCn1c(=O)c2ccccc2n2c(=S)n(CN(CC)CC3CC3)nc12	0.0087 mg/mL (≈ 23.4 µM)		
CN1CCCC1CCn1c(=O)c2cc(F)ccc2n2c(=S)[nH]nc12 (racemic)	0.0178 mg/mL (≈ 51.2 µM)	> 30	
CN(C)CCn1c(=O)c2cc(F)ccc2n2c(=S)[nH]nc12	> 0.045 mg/mL	> 30	1170
O=C(Cc1ccncc1)NCCCn1c(=O)c2cc(F)ccc2n2c(=S)[nH]nc12		> 30	< 10
O=c1c2cc(F)ccc2n2c(=S)[nH]nc2n1CCCc1ccccc1	< 0.001 mg/mL	8.8	
O=c1c2cc(F)ccc2n2c(=S)[nH]nc2n1CCc1ccccc1Cl	0.003 mg/mL (≈ 8 µM)	22.8	
NCCOCCOCCOCCC(=O)NCCCn1c(=O)c2cc(F)ccc2n2c(=S)[nH]nc12	0.0361 mg/mL (≈ 72.7 µM)	> 30	
O=C(Cc1cccc(Cl)c1)NCCCn1c(=O)c2cc(F)ccc2n2c(=S)[nH]nc12	> 0.066 mg/mL	8.4	
Nc1nnc2n(CCc3ccccc3)c(=O)c3cc(F)ccc3n12	0.0022 mg/mL (≈ 6.8 µM)	29.4	8850
CC(C)n1c(=O)c2ccccc2n2c(=S)[nH]nc12	0.0195 mg/mL (≈ 74.9 µM)		
O=C(NCCCn1c(=O)c2cc(F)ccc2n2c(=S)[nH]nc12)C1CCCC1	> 0.058 mg/mL	> 30	1550
N#Cc1ccc(CC(=O)NCCCn2c(=O)c3cc(F)ccc3n3c(=S)[nH]nc23)cc1		> 30	
O=c1c2cc(Br)ccc2n2c(=S)[nH]nc2n1CCc1ccccc1	< 0.001 mg/mL	> 30	1620

Compound	solubility [1]	t1/2 [2] [min]	Papp (in vitro) [nm/s]
CCCn1c(=O)c2ccccc2n2c(=S)n(CN(C)C3CC3)nc12	Insoluble		
O=c1c2ccncc2n2c(=S)[nH]nc2n1CCc1ccccc1	0.0173 mg/mL (≈ 53.5 µM)	15.8	2020
CC(C)(C)[C@H]1CC[C@H](C(=O)NCCCn2c(=O)c3cc(F)ccc3n3c(=S)[nH]nc23)CC1	0.0011 mg/mL (≈ 2.39 µM)	> 30	
O=C(Cc1ccc(O)cc1)NCCCn1c(=O)c2cc(F)ccc2n2c(=S)[nH]nc12		> 30	
O=c1c2cccnc2n2c(=S)[nH]nc2n1CCc1ccccc1	0.0049 mg/mL (≈ 15.2 µM)	> 30	
O=c1c2cc(F)ccc2n2c(=S)[nH]nc2n1CCc1ccccc1		> 30	770
CC(C)(C)OC(=O)N1CC(CCn2c(=O)c3cc(F)ccc3n3c(=S)[nH]nc23)C1	0.015 mg/mL (≈ 35.8 µM)		2290
NCCCn1c(=O)c2cccc(F)c2n2c(=S)[nH]nc12		> 30	
O=C(Cc1ccc(F)cc1)NCCCn1c(=O)c2cc(F)ccc2n2c(=S)[nH]nc12		26.3	
CCn1c(=O)c2cc(F)ccc2n2c(=S)[nH]nc12	> 0.039 mg/mL	> 30	
O=c1c2cc(F)ccc2n2c(=S)[nH]nc2n1CCc1ccncc1	0.0109 mg/mL (≈ 31.9 µM)	> 30	
O=C(Cc1cccc(F)c1)NCCCn1c(=O)c2cc(F)ccc2n2c(=S)[nH]nc12	> 0.063 mg/mL	26.5	
CC(C)(C)OC(=O)CC[C@H](N)C(=O)NCCOCCOCCOCCOCCC(=O)NCCCn1c(=O)c2cc(F)ccc2n2c(=S)[nH]nc12	> 0.107 mg/mL	> 30	
CN1CCN(CCn2c(=O)c3cc(F)ccc3n3c(=S)[nH]nc23)CC1	> 0.054 mg/mL	> 30	
NCCn1c(=O)c2cc(F)ccc2n2c(=S)[nH]nc12	> 0.041 mg/mL	> 30	
O=C(Cc1ccc(Br)cc1)NCCCn1c(=O)c2cc(F)ccc2n2c(=S)[nH]nc12	< 0.001 mg/mL	20.6	
Cc1ccc2c(c1)c(=O)n(CCc1ccccc1)c1n[nH]c(=S)n21	< 0.001 mg/mL	> 30	
O=C(Cc1cccc(C(F)(F)F)c1)NCCCn1c(=O)c2cc(F)ccc2n2c(=S)[nH]nc12		17.3	
O=c1c2cc(F)ccc2n2c(=S)[nH]nc2n1CCP(=O)(O)O	> 0.051 mg/mL		
O=c1c2cc(I)ccc2n2c(=S)[nH]nc2n1CCc1ccccc1	< 0.001 mg/mL	> 30	
O=C(Cc1ccccn1)NCCCn1c(=O)c2cc(F)ccc2n2c(=S)[nH]nc12		> 30	
N[C@@H](CCC(=O)O)C(=O)NCCOCCOCCOCCOCCC(=O)NCCCn1c(=O)c2cc(F)ccc2n2c(=S)[nH]nc12	> 0.099 mg/mL	> 30	
O=C(NCCCn1c(=O)c2cc(F)ccc2n2c(=S)[nH]nc12)C1CCOCC1	< 0.001 mg/mL		80
CCCn1c(=O)c2cc(F)ccc2n2c(=S)[nH]nc12	> 0.028 mg/mL	> 30	
CCOP(=O)(CCn1c(=O)c2cc(F)ccc2n2c(=S)[nH]nc12)OCC	> 0.059 mg/mL	> 30	

Compound	solubility [1]	t1/2 [2] [min]	Papp (in vitro) [nm/s]
COc1ccc(CC(=O)NCCCn2c(=O)c3cc(F)ccc3n3c(=S)[nH]nc23)cc1		> 30	
CC(C)OCCCn1c(=O)c2cc(Cl)ccc2n2c(=S)[nH]nc12	0.0086 mg/mL (≈ 24.4 µM)		
O=C(CC1CCNCC1)NCCCn1c(=O)c2cc(F)ccc2n2c(=S)[nH]nc12	0.0375 mg/mL (≈ 89.6 µM)	> 30	
O=C(Cc1ccccc1)NCCCn1c(=O)c2cc(F)ccc2n2c(=S)[nH]nc12		18.7	
O=C(Cc1ccccc1C(F)(F)F)NCCCn1c(=O)c2cc(F)ccc2n2c(=S)[nH]nc12		3.7	
CC(C)(C)OC(=O)N1CCN(CCn2c(=O)c3cc(F)ccc3n3c(=S)[nH]nc23)CC1	0.0205 mg/mL (≈ 45.7 µM)	26.3	
O=C(NCCCn1c(=O)c2cc(F)ccc2n2c(=S)[nH]nc12)C1CCNCC1	> 0.06 mg/mL	> 30	
CC(C)(C)OC(=O)CC[C@H](NC(=O)OC(C)(C)C)C(=O)NCCCn1c(=O)c2cc(F)ccc2n2c(=S)[nH]nc12	0.0416 mg/mL (≈ 71.9 µM)	3.8	
CC(C)(C)OC(=O)CC[C@@H](NC(=O)OC(C)(C)C)C(=O)NCCCn1c(=O)c2cc(F)ccc2n2c(=S)[nH]nc12	0.0204 mg/mL (≈ 35.3 µM)	25.1	
CC(=O)NCCn1c(=O)c2cc(F)ccc2n2c(=S)[nH]nc12	> 0.047 mg/mL	> 30	
CC(C)(C)OC(=O)NCCOCCOCCOCCC(=O)NCCCn1c(=O)c2cc(F)ccc2n2c(=S)[nH]nc12	> 0.088 mg/mL	27.9	
O=c1c2ccccc2n2c(=O)[nH]nc2n1CCc1ccccc1	< 0.001 mg/mL		
Cc1nnc2n(CCc3ccccc3)c(=O)c3cc(F)ccc3n12	0.011 mg/mL (≈ 34.1 µM)	10.7	
O=C(NCCCn1c(=O)c2cc(F)ccc2n2c(=S)[nH]nc12)c1ccc(Cn2ccnc2)cc1		> 30	
O=c1c2ncccc2n2c(=S)[nH]nc2n1CCc1ccccc1	0.0269 mg/mL (≈ 83.2 µM)	> 30	
CC(C)(C)OC(=O)CC[C@H](N)C(=O)NCCCn1c(=O)c2cc(F)ccc2n2c(=S)[nH]nc12	0.0375 mg/mL (≈ 78.4 µM)	> 30	
NCCCCCC(=O)NCCCn1c(=O)c2cc(F)ccc2n2c(=S)[nH]nc12	0.0318 mg/mL (≈ 78.2 µM)	> 30	
N#Cc1ccccc1CC(=O)NCCCn1c(=O)c2cc(F)ccc2n2c(=S)[nH]nc12		> 30	
CS(=O)(=O)NCCn1c(=O)c2cc(F)ccc2n2c(=S)[nH]nc12	> 0.053 mg/mL	> 30	
CC(C)(C)OC(=O)Nc1ccc(CC(=O)NCCCn2c(=O)c3cc(F)ccc3n3c(=S)[nH]nc23)cc1		> 30	
COc1ccccc1CC(=O)NCCCn1c(=O)c2cc(F)ccc2n2c(=S)[nH]nc12	> 0.065 mg/mL	16.1	
CCCn1c(=O)c2ccccc2n2c(=S)[nH]nc12		> 30	
Cc1ccc(CC(=O)NCCCn2c(=O)c3cc(F)ccc3n3c(=S)[nH]nc23)cc1		23.9	
NC1CCC(C(=O)NCCCn2c(=O)c3cc(F)ccc3n3c(=S)[nH]nc23)CC1 (racemic)	0.0388 mg/mL (≈ 92.7 µM)	> 30	
CC(C)CNC(=O)CCn1c(=O)c2ccccc2n2c(=S)[nH]nc12	0.0308 mg/mL (≈ 89.2 µM)		
